Experimental data published in patent US20230330059A1, “3-PHENYL-2H-CHROMENE DERIVATIVE AND PHARMACEUTICAL COMPOSITION FOR PREVENTING OR TREATING ALZHEIMER'S, CONTAINING SAME” (NEUROBIONET, INC., priority 2020, published 2023).
Like-named read-outs stand apart in the source and are kept apart here.

How the values were obtained:
[1] = tested on: nitric oxide production in LPS-treated BV2 cells; test: Nitric oxide production (Griess) in LPS-treated BV2 cells; format: cell-based, mouse; settings: LPS (100 ng/ml) 24 hours, Griess reagent, cell type not stated in Table 1, read-out: IC50 (NO production)
Protocol: BV2 cells were seeded at a density of 4 x 10^5 cells/well into 96-well plates, and primary microglial cells isolated from the brain of […] ICR mice were seeded at a density of 4 x 10^5 cells/well into 24-well plates.
The culture media were collected and measured for NO production using a Griess reagent solution (1% sulfanilamide and 0.1% N-1-naphthyl ethylenediamine dihydrochloride in 5% phosphoric acid). Briefly, a total of 50 µL of the supernatant was transferred to new 96-well plates and mixed with the same volume of the Griess reagent solution, followed by measuring OD at 570 nm. In addition, the cell viability was assayed in the same manner as in Experimental Example 2.

N2a cells = test: Neurite outgrowth in N2a cells (Incucyte); format: cell-based, mouse; settings: 5 µM, FIGS. 14a and 14b
Protocol: N2a cells were aliquoted at a density of 1x10^4 cells/well into 24-well plates, treated with daidzein, o-desmethylangolensin, S-equal, SPA1413 and SPA1426 at 5 µM, and evaluated for neurite outgrowth by the real-time cell monitoring system InCucyte. The cells were photographed every 2 hours, and the neurites were counted through Incucyte software.

Compound | IC50 [1] [µM] | IC50 ([1]; Mus musculus, BV-2) [µM] | neurite outgrowth (N2a cells)
Oc1ccc([C@H]2COc3cc(O)ccc3C2)cc1 [S-equol, reference compound] | 11.7 | – | –
CNC(=N)NCCC[C@H](N)C(=O)O [L-NMMA, reference compound] | 15.1 | – | –
CC(C(=O)c1ccc(O)cc1O)c1ccc(O)cc1 (centres unmarked) [O-DMA, o-desmethylangolensin, reference compound] | 34.7 | – | –
O=c1c(-c2ccc(O)cc2)coc2cc(O)ccc12 [Daidzein, reference compound] | – | 86.5 | significantly increased
